# Test results: PMC8518382, “Identification of a Bromodomain‐like Region in 15‐Lipoxygenase‐1 Explains Its Nuclear Localization” (Angewandte Chemie (International Ed. in English), 2021)
# Assays:
# [1] = target: T1, 15-LOX-1 (Homo sapiens, UniProt P16050); assay: 15-LOX-1 activity assay, UV-absorbance change for linoleic acid conversion; format: biochemical; parameters: His-tag (N); made in house; host or cells: E. coli BL21(DE3); details: for IC50: 10 min pre-incubation at RT, 25 µM linoleic acid, absorbance 234 nm; for Mode of inhibition (Lineweaver–Burk plots): Km constant, Vmax decreases with inhibitor concentration
# T1 sequence (P16050 1-662): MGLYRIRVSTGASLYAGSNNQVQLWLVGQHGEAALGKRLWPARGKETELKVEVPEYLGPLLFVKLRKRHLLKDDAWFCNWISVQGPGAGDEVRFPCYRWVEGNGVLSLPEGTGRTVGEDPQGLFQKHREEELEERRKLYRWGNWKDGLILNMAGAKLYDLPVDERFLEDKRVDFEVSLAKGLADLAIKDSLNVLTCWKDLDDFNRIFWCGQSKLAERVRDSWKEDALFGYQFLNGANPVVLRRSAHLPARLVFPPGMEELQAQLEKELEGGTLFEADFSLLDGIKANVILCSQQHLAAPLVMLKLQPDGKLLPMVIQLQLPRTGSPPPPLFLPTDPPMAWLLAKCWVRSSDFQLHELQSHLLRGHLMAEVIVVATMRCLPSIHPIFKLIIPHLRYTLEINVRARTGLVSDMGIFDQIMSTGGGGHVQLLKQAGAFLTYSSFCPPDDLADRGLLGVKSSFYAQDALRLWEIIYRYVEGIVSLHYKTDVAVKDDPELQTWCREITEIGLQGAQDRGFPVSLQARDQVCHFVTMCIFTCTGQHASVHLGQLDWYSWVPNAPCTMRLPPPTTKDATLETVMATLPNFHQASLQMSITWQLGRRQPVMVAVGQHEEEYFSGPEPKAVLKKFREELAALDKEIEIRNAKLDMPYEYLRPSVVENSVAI
# From the text: In brief, an alkyne‐alcohol was linked to propargyl halide (Cl or Br) using a CuI‐catalyzed Sonogashira cross‐coupling reaction followed by biotinylation of the alcohol using EDCI and HOBt as reagents to provide the desired biotinylated bis‐alkyne probes. The biotinylated bis‐alkynes were subjected to 15‐LOX‐1 binding studies using a 15‐LOX‐1 activity assay based on the UV‐absorbance change for linoleic acid conversion (Figure 1 a). […] Next, we evaluated the effect of the extension of the terminal ethyl substitution of inhibitor 1. […]
# empty plasmid was proceed with the same procedure, which lysate was used as the negative control (referred as BL21 control later) in 15-LOX-1 recombinant enzyme inhibition studies.
# 1.3. Purification of recombinant human 15-LOX-1
# The 15-LOX-1 with N-terminal his-tag was produced as described above. After removing the cell debris, the supernatant containing 15-LOX-1 was loaded on a Ni-NTA column (Qiagen, Hilden, Germany) pre-equilibrated with LOX lysis buffer. The column was washed twice with 30 column volume of LOX lysis buffer, and once with 30 column volume of wash buffer (25 mM HEPES, 300 mM NaCl, 25 mM Imidazole, pH 8.0). Later, the 15-LOX-1 was eluted twice with 2 column volume of elution buffer (25 mM HEPES, 300 mM NaCl, 250 mM Imidazole, pH 8.0), followed by desalting with a PD-10 column (Sigma-Aldrich) with LOX storage buffer (25 mM HEPES, 20% Glycerol, pH 7.5). The desalted 15-LOX-1 was further purified and concentrated with Vivaspin Turbo 15 (30.000 MWCO). The protein concentration was determined by Nanodrop spectrophotometry. The 100 μl aliquots of 15-LOX-1 were stored at -20 for further experiments.
# 15-LOX-1 recombinant enzyme inhibition assay
# The 15-LOX-1 inhibition assay has been detailed previously. Briefly, the conversion of linoleic acid to hydroperoxy-(9Z,11E)-octadecadienoic acid (λmax of 234 nm) was used to determine the activity of the 15-LOX-1 enzyme. The conversion rate was the slope of UV-absorbance at 234 nm overtime at the […]
# To determine the IC50 of probes, the cell lysate was pre-diluted in LOX assay buffer at a ratio of 1:160. The inhibition assay was done in an F-bottom UV-STAR 96-well plate, in which 50 µl of the diluted enzyme was incubated with 140 µl of a probe diluted in LOX assay buffer for 10 min at room temperature (RT). Later 10 µl of 500 µM linoleic acid dissolved in ethanol was added to the plate to reach a final concentration of 25 µM. The UV-absorbance at 234 nm was determined by a BioTek Synergy H1 plate reader (BioTek, Winooski, VT, USA) . The slope of the 15-LOX-1 sample untreated with the probe was set as 100%, while the slope of the BL21 control sample was set as 0%.
# For the determination of enzyme kinetics, a series concentration of linoleic acid was used. Fifty µl of pre-diluted 15-LOX-1 enzyme was incubated with 140 µl of probe solution at a fixed concentration for 10 min at RT. Subsequently, 10 µl of a series concentration of linoleic acid was added to a final concentration ranging from 10 µM to 100 µM. The conversion rate was calculated as the same as […]
# described in the IC50 determination assay. Michaelis-Menten plots, Lineweaver-Burk plots, Km, and Vmax, are generated using GraphPad Prism 8.3.0. […]
# [2] = target: T1, 15-LOX-1; assay: Kitz-Wilson kinetic analysis of 15-LOX-1 inactivation; format: biochemical; parameters: His-tag (N); made in house; host or cells: E. coli BL21(DE3); details: for Ki: read-out: K i (equilibrium binding constant)
# Procedure: Subsequently, Kitz‐Wilson analysis was performed to distinguish the equilibrium binding constant (K i) from the rate of covalent inactivation (k i). The different bis‐alkynes provided remarkably constant k i’s that varied by a factor 3 or less, whereas the K i’s varied by a factor 200 (Table 1). […] Improved non‐covalent binding is an important characteristic for activity‐based labeling because it implies improved specific recognition properties to the target of interest. Therefore, inhibitor 3 has been used for further development of a probe for activity‐based labeling of lipoxygenase activity with 15‐LOX‐1 as a reference enzyme. For convenient discussion, we named inhibitor 3, “Labelox B”. […]
# described in the IC50 determination assay. Michaelis-Menten plots, Lineweaver-Burk plots, Km, and Vmax, are generated using GraphPad Prism 8.3.0.
# 1.5. Kits-Wilson kinetic analysis
# The probes inhibit the 15-LOX-1 enzyme with a two-step reaction. First, a probe binds to an enzyme to get a reversible complex, E*I. The dissociation constant of inhibitor (Ki) is from the formation of E*I. Then, the probe forms a covalent bond with the enzyme, which generates an irreversible complex, E-I. The inactivation rate constant (ki) is to describe the rate of E-I generation. To determine these inactivation parameters, Kitz-Wilson analysis was employed. The procedure has been detailed previously
SMILES,IC50 [1],Mode of inhibition (Lineweaver–Burk plots) [1],k i (rate of covalent inactivation) [2],Ki [2],other results
CCC#CCC#CCCOC(=O)CCCC[C@@H]1SC[C@@H]2NC(=O)N[C@@H]21 [Probe 8],> 100 µM,non‐competitive LOX inhibition,–,–,"LOX inhibitory potency (words) ([1]; structure-activity discussion in text, listed as 8): did not improve the potency"
CCC#CCC#CCCOC(=O)CCCC[C@@H]1SC[C@@H]2NC(=O)N[C@@H]21 [Probe 4],11.1 µM,–,0.0093 ± 0.0031 min⁻¹,16.6 ± 3.29 µM,"LOX inhibitory potency (words) ([1]; structure-activity discussion in text, listed as 4): loss of LOX inhibitory potency"
CCC#CCC#CC(C)OC(=O)CCCC[C@@H]1SCC2NC(=O)NC21 (some centres unmarked) [Probe 2],> 100 µM,–,–,–,LOX inhibitory potency (words) ([1]; structure-activity discussion): potency was lost
CCCCCC#CCC#CCCCOC(=O)CCCC[C@@H]1SC[C@@H]2NC(=O)N[C@@H]21 [Probe 7],> 100 µM,non‐competitive LOX inhibition,–,–,"LOX inhibitory potency (words) ([1]; structure-activity discussion in text, listed as 7): regain in potency"
CCC#CCC#CCCCOC(=O)CCCC[C@@H]1SC[C@@H]2NC(=O)N[C@@H]21 [Probe 5],19.8 µM,–,0.0066 ± 0.0047 min⁻¹,38.7 ± 6.33 µM,LOX inhibitory potency (words) ([1]; structure-activity discussion): loss of LOX inhibitory potency
CCC#CCC#CCOC(=O)CCCC[C@@H]1SCC2NC(=O)NC21 (some centres unmarked) [Probe 1],38.2 µM,non‐competitive LOX inhibition,0.0136 ± 0.0061 min⁻¹,116 ± 19.5 µM,–
CCCCCC#CCC#CCCCOC(=O)CCCC[C@@H]1SC[C@@H]2NC(=O)N[C@@H]21 [Probe 6],–,–,–,–,"LOX inhibitory potency (words) ([1]; structure-activity discussion in text, listed as 6): did not improve the potency"
CCCC#CCOC(=O)CCCC[C@@H]1SCC2NC(=O)NC21 (some centres unmarked) [Probe 10],> 100 µM,–,–,–,–
C#CCOC(=O)CCCC[C@@H]1SCC2NC(=O)NC21 (some centres unmarked) [Probe 9],> 100 µM,–,–,–,–
